Measurements reported in paper PMC7614749 (Chemistry (Weinheim an der Bergstrasse, Germany), 2023).

Biological target: T1, transketolase (TK) (Zea mays, UniProt Q7SIC9)
T1 sequence (Q7SIC9 1-675): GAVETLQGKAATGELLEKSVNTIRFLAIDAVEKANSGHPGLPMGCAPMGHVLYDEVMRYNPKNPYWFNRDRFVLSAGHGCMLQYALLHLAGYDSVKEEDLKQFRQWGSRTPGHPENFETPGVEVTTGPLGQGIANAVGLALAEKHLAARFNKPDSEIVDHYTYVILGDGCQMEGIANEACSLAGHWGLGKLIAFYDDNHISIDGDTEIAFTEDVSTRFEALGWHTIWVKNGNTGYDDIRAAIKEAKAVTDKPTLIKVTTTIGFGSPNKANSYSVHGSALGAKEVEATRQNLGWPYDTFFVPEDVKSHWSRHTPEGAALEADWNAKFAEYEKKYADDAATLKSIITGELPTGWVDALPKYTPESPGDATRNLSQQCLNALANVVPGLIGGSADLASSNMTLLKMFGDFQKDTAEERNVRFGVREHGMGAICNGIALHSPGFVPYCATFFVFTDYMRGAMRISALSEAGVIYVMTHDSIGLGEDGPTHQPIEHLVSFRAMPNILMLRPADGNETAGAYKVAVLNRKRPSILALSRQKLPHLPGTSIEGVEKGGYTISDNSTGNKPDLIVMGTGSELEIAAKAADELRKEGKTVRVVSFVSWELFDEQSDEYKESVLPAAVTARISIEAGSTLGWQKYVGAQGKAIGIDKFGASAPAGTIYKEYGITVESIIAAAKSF
Assay: in vitro dose-response enzymatic activity assay
Format: biochemical
Details: read-out: enzymatic assay / IC50

`C/C=C1/CC2=C(C(=O)OC2=O)[C@H](CCC)[C@H](O)C(=O)C[C@@H]1O` [compound 6, cornexistin] was tested, and the IC50 was 50 ± 5 µM.
